These results are taken from publication PMC7098370 (Toxicological Sciences, 2020).

Read-outs that look alike come from different tables or passages of the source.

Series [1] relates to rats. The series can be described thus: Acute oral toxicity testing. It is filed as in vivo, rat.
A short description of series [2]: Bioelution in simulated gastric fluid. Particulars: for Bioelution of Co in gastric fluid (% release), 2 h / Bioelution of Co in gastric fluid / cobalt release (µg Co/g sample), 2 h: simulated gastric fluid pH 1.5, 2 h, 37°C.
Series [3] can be described thus: Bioelution in simulated intestinal fluid. Particulars: for Bioelution of Co in intestinal fluid (% release) / Bioelution of Co in intestinal fluid / cobalt release (µg Co/g sample): simulated intestinal fluid pH 7.4, 24 h.
Series [4] can be described thus: Plasma toxicokinetic study. It counts as in vivo, rat. Particulars: for C max / K el / t 1/2 / Bioavailability (relative): 300 mg test item/kg PO; for Bioavailability (relative): vs CoCl2 IV; for Bioavailability calculated from AUC as % of CoCl2 IV AUC, average of m + f: relative bioavailability: oral, average of males and females.
The subject of series [5] is rats. Particulars: oral, ref Domingo et al. (1984), cited from earlier work.
Another series deals with Crl:CD(SD) rats. The series can be described thus: Combined RDT study with reproduction/developmental toxicity screening test. It counts as in vivo, rat. Particulars: oral gavage.
Setting [6] is: listed as Co Sulfate Heptahydrate.

On to `[Li+].[O]=[Co][O-]` [CoLiO2, Cobalt lithium oxide], for which, in the series on rats [1] (OECD 401 or 425), the “Acute LD50 (mg Co/kg bw)” value is more than 3011 mg Co/kg bw. Moreover, the “Acute LD50 (mg substance/kg bw)” value in the series on rats [1] (OECD 401 or 425, listed as Co Lithium Dioxide) was more than 5000 mg substance/kg bw. The “Bioelution of Co in gastric fluid (% release), 2 h” value (“Bioelution of Co … (% release), 2 h” below) in series [2] is 5.9 % release. Also, the “Bioelution of Co in intestinal fluid (% release)” value in series [3] is 0.02 (24 h) % release. Moreover, the “Bioelution of Co in intestinal fluid / cobalt release (µg Co/g sample)” value in series [3] (listed as Co Lithium Dioxide) was 134 (24 h) µg Co/g sample. Further, in series [4] (females), the C max was 2.88 ng/mL, the K el was determined as 0.0568 h⁻¹, the “t 1/2” value is given as 12.20 h and the “Bioavailability (relative)” value was 0.25 (relative) %. Further, the “Bioavailability (relative)” value in series [4] (females, listed as Co lithium dioxide) is 0.25%. Besides, in series [4] (males), the C max turned out to be 3.45 ng/mL, the K el came out at 0.0535 h⁻¹, the “t 1/2” value is listed as 13.0 h and the “Bioavailability (relative)” value is recorded as 0.30 (relative) %. For the same molecule, the “Bioavailability (relative)” value in series [4] (males, listed as Co lithium dioxide) was determined as 0.3%. Also, in series [4] (rats), the “Bioavailability calculated from AUC as % of CoCl2 IV AUC, average of m + f: relative bioavailability” value was “Relative bioavailability 0.28%”.

In the case of `[O]=[Co][OH]` [CoOOH, Cobalt oxyhydroxide], the “Bioelution of Co … (% release), 2 h” value in series [2] was 0.85 % release. Moreover, the “Bioelution of Co in gastric fluid / cobalt release (µg Co/g sample), 2 h” value in series [2] (listed as Co Oxide Hydroxide) is reported as 4460 µg Co/g sample. The “Bioelution of Co in intestinal fluid (% release)” value in series [3] was 0.06 (24 h) % release. For the same molecule, the “Bioelution of Co in intestinal fluid / cobalt release (µg Co/g sample)” value in series [3] (listed as Co Oxide Hydroxide) is on record as 370 (24 h) µg Co/g sample.

As to `O.O.O.O.O.O.O.O=S(=O)([O-])[O-].[Co+2]` [CoSO4, Cobalt sulfate heptahydrate], the “Acute LD50 (mg Co/kg bw)” value in the series on rats [5] is reported as 65 mg Co/kg bw. In addition, the “Acute LD50 (mg substance/kg bw)” value in the series on rats [5] is “below 1000 mg substance/kg bw”; in the series with rats [5] (setting [6]) it was 310 [Domingo et al. (1984)] mg substance/kg bw. Besides, the “Bioelution of Co … (% release), 2 h” value in series [2] is given as 99.7 % release. Further, the “Bioelution of Co in intestinal fluid (% release)” value in series [3] is 64 (24 h) % release. In addition, the “Bioelution of Co in intestinal fluid / cobalt release (µg Co/g sample)” value in series [3] (setting [6]) was 139 000 (24 h) µg Co/g sample.

Turning to Cobalt sulfide [CoS], in the series on rats [1] (OECD 401 or 425), the “Acute LD50 (mg Co/kg bw)” value is recorded as more than 7124 mg Co/kg bw and the “Acute LD50 (mg substance/kg bw)” value is “exceeding 11 000 mg substance/kg bw”. In addition, in the series with rats [1] (OECD 401 or 425, listed as Co Sulfide), the “Acute LD50 (mg substance/kg bw)” value is on record as > 11 000 mg substance/kg bw. Also, the “solubility in gastric fluid” value in series [2] (simulated gastric fluid pH 1.5) is given as “poorly soluble”. In addition, in series [2], the “Bioelution of Co … (% release), 2 h” value was 0.58 % release. Besides, the “Bioelution of Co in gastric fluid / cobalt release (µg Co/g sample), 2 h” value in series [2] (listed as Co Sulfide) was 3820 µg Co/g sample. Also, in the series on Crl:CD(SD) rats (all doses), the premature deaths result is given as “None of the exposed animals died prematurely”. For the same molecule, in the series with Crl:CD(SD) rats (rats), the “NOAEL (F0 generation)” value was 648 mg Co/kg bw/day, the “NOAEL (F1 generation)” value was more than 648 mg Co/kg bw/day and the “NOAEL (reproductive toxicity)” value is more than 648 mg Co/kg bw/day. Moreover, the “solubility in intestinal fluid” value in series [3] (simulated intestinal fluid pH 7.4) is recorded as “poorly soluble”. In addition, the “Bioelution of Co in intestinal fluid (% release)” value in series [3] was 0.33 (24 h) % release. Also, the “Bioelution of Co in intestinal fluid / cobalt release (µg Co/g sample)” value in series [3] (listed as Co Sulfide) is 2180 (24 h) µg Co/g sample. Moreover, in series [4] (females), the C max amounted to 2.01 ng/mL, the K el is 0.0464 h⁻¹, the “t 1/2” value is recorded as 14.9 h and the “Bioavailability (relative)” value is given as 0.09 (relative) %. Also, in series [4] (males), the C max came out at 2.01 ng/mL, the K el amounted to 0.0413 h⁻¹, the “t 1/2” value is 16.8 h and the “Bioavailability (relative)” value is recorded as 0.08 (relative) %. In addition, the “Bioavailability calculated from AUC as % of CoCl2 IV AUC, average of m + f: relative bioavailability” value in series [4] (rats) is listed as “Relative bioavailability 0.08%”. The oral bioavailability result in series [4] (single oral bolus, rats, males and females not distinguished) is given as “below 0.1%”.
